pIC50: −log10 of the molar value.
target: recombinant human BACE-1 protein (Homo sapiens (Human), UniProt P56817); test: Measurement of Inhibition of β-Secretase Activity; assay type: biochemical; conditions: fluorescence-quenched peptide substrate 18 nM, BACE-1 7.4 nM, 3 h at 30° C., pH5.0; read-out: IC50 value
Summary of the method: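 Recombinant human BACE-1 incubated with compound and Eu-cryptate-labelled biotinylated peptide substrate 3 h at 30° C in 50 mM sodium acetate pH 5.0, 0.008% Triton X-100. Streptavidin-XL665 in KF-containing phosphate buffer pH 7.0 then added, 1 h at 30° C, for time-resolved FRET read-out.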

recombinant human BACE-1 protein, sequence (P56817 46-501): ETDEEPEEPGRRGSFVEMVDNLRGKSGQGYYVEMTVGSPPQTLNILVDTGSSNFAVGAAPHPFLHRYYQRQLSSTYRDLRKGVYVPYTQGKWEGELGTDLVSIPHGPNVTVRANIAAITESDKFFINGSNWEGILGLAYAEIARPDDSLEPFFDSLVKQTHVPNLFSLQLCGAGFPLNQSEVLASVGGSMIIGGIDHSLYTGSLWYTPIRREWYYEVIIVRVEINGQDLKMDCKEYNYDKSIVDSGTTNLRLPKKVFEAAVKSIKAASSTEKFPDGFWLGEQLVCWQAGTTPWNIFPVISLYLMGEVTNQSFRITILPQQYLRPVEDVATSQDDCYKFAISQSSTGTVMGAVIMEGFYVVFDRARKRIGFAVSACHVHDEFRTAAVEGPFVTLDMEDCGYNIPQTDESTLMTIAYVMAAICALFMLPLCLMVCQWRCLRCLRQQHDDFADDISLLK

Row | Structure (SMILES) | pIC50
1 | CC1(c2ccc(C(=O)NCc3ccccc3)s2)CCSC(N)=N1 (stereo not shown) [Compound 1124] | > 4.00
2 | CC1(c2cccc(NC(=O)CCc3ccccc3)c2)CCSC(N)=N1 (stereo not shown) [Compound 808] | > 4.00
3 | CC1(c2cc(Br)cc(NC(=O)c3ccco3)c2)CCSC(N)=N1 (stereo not shown) [Compound 370] | > 4.00
4 | CC1(c2cccc(NC(=O)c3ccc4[nH]cnc4c3)c2)CCSC(N)=N1 (stereo not shown) [Compound 1046] | > 4.00
5 | CC1(c2cccc(NC(=O)c3ccc(NCc4cccnc4)cn3)c2)CCSC(N)=N1 (stereo not shown) [Compound 426] | > 4.00
6 | CC1(c2cc(NC(=O)c3cocn3)ccc2F)CCSC(N)=N1 (stereo not shown) [Compound 97] | > 4.00
7 | CCOc1ccc(C(=O)Nc2cccc(C3(C)CCSC(N)=N3)c2)nc1 (stereo not shown) [Compound 516] | > 4.00

Further lines, results first:

Row | pIC50 | Structure (SMILES)
8 | > 4.00 | CC1(c2cccc(NC(=O)CCNC(=O)c3ccc(F)cn3)c2)CCSC(N)=N1 (stereo not shown) [Compound 816]
9 | > 4.00 | Cc1ccc(CCNc2cccc(C3(C)CCSC(N)=N3)c2)cc1 (stereo not shown) [Compound 876]
10 | > 4.00 | CC1(c2cccc(NC(=O)CCNC(=O)c3ccc(F)cc3)c2)CCSC(N)=N1 (stereo not shown) [Compound 216]
11 | > 4.00 | Cc1cc(C(=O)Nc2cc(C3(C)CCSC(N)=N3)ccc2F)c(C)o1 (stereo not shown) [Compound 607]
12 | > 4.00 | Cc1ccc(NC(=O)COc2cccc(C3(C)CCSC(N)=N3)c2)cc1 (stereo not shown) [Compound 746]
13 | > 4.00 | COc1ccc(C(=O)Nc2cccc(C3(C)CCSC(N)=N3)c2)c(OC)n1 (stereo not shown) [Compound 467]

same assay, conditions: recombinant human BACE-1 protein, 3 h at 30° C., pH5.0; read-out: IC50 value

Row | Structure (SMILES) | pIC50
14 | CC1(c2cccc(OCC(=O)Nc3ccc(F)cc3)c2)CCSC(N)=N1 (stereo not shown) [Compound 1186] | 5.24

test system: not given; test: not given; conditions: not given

Row | Structure (SMILES) | melting point
15 | CC1(c2ccc(C(=O)NCc3ccccc3)s2)CCSC(N)=N1 (stereo not shown) [Compound 1124] | 169 to 172 °C
16 | COc1ccc(C2(c3ccc(OC)cc3)CCSC(N)=N2)cc1 [Compound 1006] | 88 to 90 °C
17 | CCCC1(c2ccc(OC)cc2)CCSC(N)=N1 (stereo not shown) [Compound 202] | 117 to 118 °C
18 | CC1(c2ccccc2)CCCSC(N)=N1.Cl (stereo not shown) | 223 to 225 °C
19 | COc1ccc(C2(C)CCSC(=N)N2C)cc1.Cl (stereo not shown) | 221 to 224 °C
20 | CC1(c2cc(F)cc(NC(=O)c3cnccn3)c2)CCSC(N)=N1 (stereo not shown) [Compound 244] | 222 to 224 °C
21 | CC1(c2ccc(OC(F)(F)F)cc2)CCSC(N)=N1 (stereo not shown) [Compound 968] | 107 to 109 °C
22 | CC1(c2cccc(O)c2)CCSC(N)=N1.Cl (stereo not shown) | 238 to 239 °C
23 | CC1(c2cccc(OCCCN3CCCC3=O)c2)CCSC(N)=N1 (stereo not shown) [Compound 149] | 143 to 145 °C
24 | CC1(c2cc(NC(=O)c3ncc(Cl)cc3Cl)ccc2F)CCSC(N)=N1 (stereo not shown) [Compound 827] | 134 to 137 °C
25 | CC(=O)Nc1ccc(C2(C)CCSC(N)=N2)cc1 (stereo not shown) [Compound 1161] | 192 to 193 °C
26 | CCOc1cnc(C(=O)Nc2cccc(C3(C)CCSC(N)=N3)c2)cn1 (stereo not shown) [Compound 863] | 192 to 194 °C
27 | CN(C)C(=O)c1ccc(C2(C)CCSC(N)=N2)cc1 (stereo not shown) [Compound 644] | 201 to 203 °C
28 | CC1(c2csc(C(=O)Nc3ccccc3)c2)CCSC(N)=N1 (stereo not shown) [Compound 235] | 196 to 200 °C
29 | COc1ccccc1C1(C)CCSC(N)=N1 (stereo not shown) [Compound 680] | 159 to 160 °C
30 | CC1(c2cccc(NC(=O)c3ncc(Cl)cc3N)c2)CCSC(N)=N1 (stereo not shown) [Compound 743] | 148 to 150 °C
31 | CC1(c2ccc3ccccc3c2)CSC(N)=N1.Cl (stereo not shown) | 264 to 265 °C

Row | Structure (SMILES) | melting point
32 | CC(C)(C)c1cccc(Oc2ccc(C3(C)CCSC(N)=N3)cc2)c1 (stereo not shown) [Compound 401] | 106 to 107 °C
33 | CC1(c2cccc(COc3ccc(Cl)cn3)c2)CCSC(N)=N1 (stereo not shown) [Compound 683] | 166 to 168 °C
34 | COCc1cc(NC(=O)c2ccc(Cl)cn2)cc(C2(C)CCSC(N)=N2)c1.Cl (stereo not shown) [Compound 284] | 181.5 °C
35 | CC(=O)/N=C1\NC(C)(c2ccc(F)cc2)CCS1 (stereo not shown) [Compound 767] | 98 to 100 °C
36 | Cc1ccc(Oc2ccc(C3(C)CCSC(N)=N3)cc2)cc1 (stereo not shown) [Compound 1067] | 162 to 165 °C
37 | COc1ccc(C2(C)CCCN=C(N)S2)cc1.Cl (stereo not shown) | 130 to 131 °C
38 | CC1(c2cccc(NC(=O)c3cnc4ccccc4n3)c2)CCSC(N)=N1 (stereo not shown) [Compound 1115] | 167 to 170 °C
39 | CC1(c2cccc(NC(=O)c3ccc(C#N)cn3)c2)CCSC(N)=N1 (stereo not shown) [Compound 651] | 193 to 196 °C
40 | CCCCOc1ccc(C2(C)CCSC(N)=N2)cc1 (stereo not shown) [Compound 636] | 118 to 119 °C
41 | CC1(c2ccccc2)CC(c2ccccc2)SC(N)=N1.Cl (stereo not shown) | 161 to 165 °C
42 | CC1(c2cccc(Oc3ccccc3)c2)CCSC(N)=N1 (stereo not shown) [Compound 1139] | 140 to 141 °C
43 | CC1(c2ccccc2)CCN=C(N)S1.Cl (stereo not shown) | 201 to 204 °C
44 | COc1ccc(C2(C)CCSC(NC(=N)N)=N2)cc1F.Cl (stereo not shown) | 167 to 174 °C
45 | CN(C)Cc1ccc(C(=O)Nc2cccc(C3(C)CCSC(N)=N3)c2)nc1 (stereo not shown) [Compound 653] | 193 to 194 °C
46 | COc1ccc(C2(C)CC(C)SC(N)=N2)cc1 (stereo not shown) [Compound 86] | 141 to 142 °C
47 | CC1(c2ccc3c(c2)OCCO3)CCNC(N)=N1.Cl (stereo not shown) | 198 to 201 °C
48 | CC1(c2ccc(F)c(-n3nc4c5cc(Cl)ccc5[nH]cc-4c3=O)c2)CCSC(N)=N1 (stereo not shown) [Compound 1166] | 290 to 295 °C

Continued, values first:

Row | melting point | Structure (SMILES)
49 | 213 to 214 °C | CNC(=O)c1ccc(C2(C)CCSC(N)=N2)cc1 (stereo not shown) [Compound 1120]
50 | 92 to 93 °C | NC1=NC2(CCCc3ccccc32)CCS1 (stereo not shown) [Compound 445]
51 | 138 to 139 °C | CC(C)c1ccc2cc(C3(C)CCSC(N)=N3)ccc2c1 (stereo not shown) [Compound 811]
52 | 82 to 83 °C | COc1cccc(C2(C)CCSC(N)=N2)c1 (stereo not shown) [Compound 851]
53 | 157 to 162 °C | CC1(c2cccc(NC(=O)c3ncc(Cl)cc3O)c2)CCSC(N)=N1 (stereo not shown) [Compound 717]
54 | 102 to 103 °C | COc1ccc(C2(C)CCCN=C(NC(C)(C)C)S2)cc1 (stereo not shown) [Compound 354]
55 | 180 to 181 °C | CC1(C)CCC(C)(C)c2cc(C3(C)CCSC(N)=N3)ccc21 (stereo not shown) [Compound 533]
56 | 232 to 234 °C | CC1(c2ccc(C(=O)Nc3ccc(Cl)cc3)cc2)CCSC(N)=N1 (stereo not shown) [Compound 1230]
57 | 235 to 240 °C | CC1(c2ccccc2)CN=C(N)SC1.Cl (stereo not shown)
58 | 132.1 to 134.4 °C | CNC(=O)CNC1=NC(C)(c2ccc3ccccc3c2)CCS1 (stereo not shown) [Compound 930]
59 | 177 to 178 °C | CC1(c2cccc(C(=O)Nc3ccc(Cl)cc3)c2)CCSC(N)=N1 (stereo not shown) [Compound 700]
60 | 234 to 240 °C | CC1(c2ccc(N)cc2)CCSC(N)=N1 (stereo not shown) [Compound 58]
61 | 143 to 145 °C | CC1(c2cccc(CNC(=O)c3ccccc3)c2)CCSC(N)=N1.Cl (stereo not shown)
62 | 47 to 48 °C | CC(C)(C)NC1=NC(C)(c2ccccc2)CCCS1 (stereo not shown) [Compound 810]
63 | 112 to 114 °C | CC1(c2ccc(C(F)(F)F)cc2)CCSC(N)=N1 (stereo not shown) [Compound 573]
64 | 132 to 134 °C | CC1(c2ccc(F)c(C(=O)Nc3cc(Cl)ccn3)c2)CCSC(N)=N1 (stereo not shown) [Compound 1068]
65 | 272 to 285 °C (dec.) | CC1(c2cccc3c2CC(=O)N3)CCSC(N)=N1.Cl (stereo not shown)
66 | 125 to 126 °C | COc1ccc(C2(C)CCCSC(N)=N2)cc1 (stereo not shown) [Compound 1008]
67 | 147 to 150 °C | CCOc1ccc(C2(C)CCSC(N)=N2)cc1 (stereo not shown) [Compound 132]
68 | 181 to 192 °C | Cn1nc(C(=O)Nc2cccc(C3(C)CCSC(N)=N3)c2)cc1[N+](=O)[O-] (stereo not shown) [Compound 601]

Row | melting point | Structure (SMILES)
69 | 153 to 155 °C | Cc1ccc(C(=O)NCc2cccc(C3(C)CCSC(N)=N3)c2)cc1.Cl (stereo not shown)
70 | 192 to 194 °C | CO/N=C(\C)c1cccc(C2(C)CCSC(N)=N2)c1.Cl (stereo not shown)
71 | 116 to 117 °C | CC1(c2ccc(Cl)cc2)CSC(N)=N1 (stereo not shown) [Compound 24]
72 | 84 to 85 °C | CNC1=NC(C)(c2ccc(OC)cc2)CCS1 (stereo not shown) [Compound 1064]
73 | 251 °C (dec.) | CC1(c2ccc(OCc3ccccc3)cc2)CCSC(N)=N1 (stereo not shown) [Compound 892]
74 | 109 to 110 °C | Cc1cccc(Oc2ccc(C3(C)CCSC(N)=N3)cc2)c1 (stereo not shown) [Compound 1110]
75 | 161 to 162 °C | CC1(c2cccc(CN3CCOCC3)c2)CCSC(N)=N1 (stereo not shown) [Compound 649]
76 | 99 to 100 °C | CCC1(c2ccc(OC)cc2)CCSC(N)=N1 (stereo not shown) [Compound 709]
77 | 281 °C (dec.) | CC1(c2ccc(OCc3ccc(-c4ccccc4)cc3)cc2)CCSC(N)=N1.Cl (stereo not shown)
78 | 153 to 157 °C | COC(=O)c1ccc(C2(C)CCSC(N)=N2)cc1 (stereo not shown) [Compound 1119]
79 | 156 to 159 °C | COC(=O)c1cccc(C2(C)CCSC(N)=N2)c1 (stereo not shown) [Compound 1153]
80 | 205 to 206 °C | CC1(c2ccccc2)CCN=C(N)O1.Cl (stereo not shown)
81 | 105 to 106 °C | NC1=NC2(CCS1)CCc1ccccc12 (stereo not shown) [Compound 525]
82 | 167 to 168 °C | CC1(c2ccc3c(c2)CCO3)CCS/C(=N/S(C)(=O)=O)N1 (stereo not shown) [Compound 308]
83 | 131 to 132 °C | COc1ccc(SCCOc2cccc(C3(C)CCSC(N)=N3)c2)cc1 (stereo not shown) [Compound 916]
84 | 194 to 195 °C | CC1(c2ccc(-c3ccccc3)cc2)CCSC(N)=N1 (stereo not shown) [Compound 1181]
85 | 141 to 144 °C | CC1(c2ccc(OCCc3ccc(O)cc3)cc2)CCSC(N)=N1 (stereo not shown) [Compound 881]
86 | 184 to 187 °C | CC1(c2cc(F)cc(NC(=O)c3ncc(Cl)cc3Cl)c2)CCSC(N)=N1 (stereo not shown) [Compound 342]
87 | 262 to 267 °C | CCN(C(=O)c1ccco1)c1cccc(C2(C)CCSC(N)=N2)c1.Cl (stereo not shown)
88 | 266 to 268 °C | CN1C(=N)SCCC1(C)c1ccc2ccccc2c1.Cl (stereo not shown)
